Values quoted from earlier work as cited in patent US20030166006A1, “Glucose-1-phosphate thymidylyltransferase and method for selecting inhibitors thereof” (priority 2000, published 2003).

Biological target: RmlA from Pseudomonas aeruginosa (Pseudomonas aeruginosa, UniProt Q9HU22)
Conditions: allosteric feedback inhibition by final product of the four enzyme pathway; Melo & Glaser, 1965

RmlA from Pseudomonas aeruginosa, sequence (Q9HU22 1-293): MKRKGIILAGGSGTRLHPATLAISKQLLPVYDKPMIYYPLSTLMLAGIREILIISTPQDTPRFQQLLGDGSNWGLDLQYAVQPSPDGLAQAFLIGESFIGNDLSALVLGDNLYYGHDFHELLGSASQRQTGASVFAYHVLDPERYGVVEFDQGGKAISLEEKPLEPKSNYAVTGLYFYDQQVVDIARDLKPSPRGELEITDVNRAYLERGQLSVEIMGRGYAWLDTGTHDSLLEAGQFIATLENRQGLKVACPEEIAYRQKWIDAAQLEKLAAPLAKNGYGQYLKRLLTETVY

inhibition of RmlA: strongly inhibited
Structure (SMILES): Cc1cn([C@H]2C[C@H](O)[C@@H](COP(=O)(O)OP(=O)(O)OC3OC(C)C(O)C(O)C3O)O2)c(=O)[nH]c1=O (stereo partly drawn) [dTDP-rhamnose, 2′-deoxy-thymidylyl-diphospho-L-rhamnose]
